Data set [1] concerns HeLa. As to the kind of experiment: Drug uptake in human HeLa cells assessed as staining capability after 5 hrs by fluorescence microscopy. The format is ADME, cell-based.
In data set [2] the test system is HeLa. Briefly: Cytotoxicity against human HeLa cells up to 1000 uM after 48 hrs by MTT assay. The format is functional, cell-based. In general terms: Tetrazolium dyes change colour on reduction, which living cells bring about.
Another data set concerns Jurkat. As to the kind of experiment: Cytotoxicity against human Jurkat cells at 1000 uM after 48 hrs by MTT assay. The format is functional, cell-based.

The source made the active and inactive calls. The calls are words filed in the database; no cut-off is given here.

As for `CCN(CC)c1ccc2c(-c3ccccc3C(=O)O)c3ccc(=[N+](CC)CC)cc-3oc2c1` [RHODAMINE B], the Activity entry with HeLa [1] is recorded as “Not Active”.

With `NCCNCCNCCNCCNC[C@H]1O[C@@H]2O[C@H]3[C@H](O)[C@@H](O)[C@@H](O[C@@H]4[C@@H](O)[C@H](O)[C@H](O[C@@H]5[C@@H](O)[C@H](O)[C@H](O[C@@H]6[C@@H](O)[C@H](O)[C@H](O[C@@H]7[C@@H](O)[C@H](O)[C@H](O[C@H]8[C@H](O)[C@@H](O)[C@@H](O[C@H]1[C@H](O)[C@H]2O)O[C@@H]8CO)O[C@H]7CO)O[C@H]6CO)O[C@H]5CO)O[C@H]4CO)O[C@@H]3CO`, in the data set with HeLa [2], the result was inactive. Also, the outcome in the data set on Jurkat was Active.

In the case of `CCN(CC)c1ccc2c(-c3ccccc3C(=O)NCCNCCNCCNCCNC[C@H]3O[C@@H]4O[C@H]5[C@H](O)[C@@H](O)[C@@H](O[C@@H]6[C@@H](O)[C@H](O)[C@H](O[C@@H]7[C@@H](O)[C@H](O)[C@H](O[C@@H]8[C@@H](O)[C@H](O)[C@H](O[C@@H]9[C@@H](O)[C@H](O)[C@H](O[C@H]%10[C@H](O)[C@@H](O)[C@@H](O[C@H]3[C@H](O)[C@H]4O)O[C@@H]%10CO)O[C@H]9CO)O[C@H]8CO)O[C@H]7CO)O[C@H]6CO)O[C@@H]5CO)c3ccc(=[N+](CC)CC)cc-3oc2c1.[Cl-]`, in the data set on HeLa [1], the Drug uptake came out at 66.6 µM.

On to `OC[C@H]1O[C@@H]2O[C@H]3[C@H](O)[C@@H](O)[C@@H](O[C@H]4[C@H](O)[C@@H](O)[C@@H](O[C@H]5[C@H](O)[C@@H](O)[C@@H](O[C@H]6[C@H](O)[C@@H](O)[C@@H](O[C@H]7[C@H](O)[C@@H](O)[C@@H](O[C@H]8[C@H](O)[C@@H](O)[C@@H](O[C@H]1[C@H](O)[C@H]2O)O[C@@H]8CO)O[C@@H]7CO)O[C@@H]6CO)O[C@@H]5CO)O[C@@H]4CO)O[C@@H]3CO`, for which the result with HeLa [2] was inactive.

Consider `NCCNC[C@H]1O[C@@H]2O[C@H]3[C@H](O)[C@@H](O)[C@@H](O[C@@H]4[C@@H](O)[C@H](O)[C@H](O[C@@H]5[C@@H](O)[C@H](O)[C@H](O[C@@H]6[C@@H](O)[C@H](O)[C@H](O[C@@H]7[C@@H](O)[C@H](O)[C@H](O[C@H]8[C@H](O)[C@@H](O)[C@@H](O[C@H]1[C@H](O)[C@H]2O)O[C@@H]8CO)O[C@H]7CO)O[C@H]6CO)O[C@H]5CO)O[C@H]4CO)O[C@@H]3CO`, for which the result in the data set with HeLa [2] was inactive.

These data come from ChEMBL document CHEMBL1153495, “A highly sensitive probe detecting low pH area of HeLa cells based on rhodamine B modified beta-cyclodextrins” (Bioorg Med Chem, 2009).
